Read-outs that look alike come from different tables or passages of the source.
What was measured:
trypsin = target: T1, trypsin (Bos taurus, UniProt P00760); experiment: Determination of trypsin-inhibitory activity; format: biochemical, bovine; conditions: 0.1 μM; read-out: inhibition rate, trypsin
T1 construct: purchased Sigma; host or cells: bovine pancreas
T1 sequence (P00760 24-246): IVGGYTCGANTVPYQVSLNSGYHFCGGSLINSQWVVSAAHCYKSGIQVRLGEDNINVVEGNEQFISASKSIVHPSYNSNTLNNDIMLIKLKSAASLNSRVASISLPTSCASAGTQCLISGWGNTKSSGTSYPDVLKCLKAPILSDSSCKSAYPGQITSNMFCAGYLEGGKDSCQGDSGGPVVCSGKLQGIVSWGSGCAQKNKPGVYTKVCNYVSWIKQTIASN
Procedure: (§1) The methods for the measurement of inhibitory activities against various proteases and the method for calculating the inhibition rate are as follows.
Determination of trypsin-inhibitory activity
In the present invention, a 50 mM Tris-HCl buffer (pH 8.0) was employed as a buffer for measurement.
To a mixture of the above-mentioned buffer (850 μl), a solution of the compounds of the present invention in the same buffer (50 μl) and a 0.02 μM solution of trypsin (derived from bovine pancreas, Sigma) in the same buffer (50 μl) was added a 200 μM solution of 7-(prolyl-phenylaranyl-arginyl)-4-methylcoumarinamide (Peptide Institute, Inc.) in the same buffer (50 μl),and the mixture was incubated at 30° C. for 1 hour. The reaction mixture was immersed in ice (0° C.) to terminate the reaction, and the fluorescence (b1) was determined 1 hour later (excitation at 370 nm and emission at 440 nm). Concurrently, there were conducted the experiment wherein, in the system above, the trypsin solution was substituted for a buffer alone, and the experiment wherein the solution of the compounds of the present invention was substituted for a buffer above. Each fluorescence (b2 and b3) was determined respectively.
(§2) Using the fluorescence x1, x2 and x3 measured in the abovementioned manner, the inhibitory rate against various proteases was calculated by the following formula where x stands for b, c, d, e or f: [formula]

elastase = target: T2, elastase (Sus scrofa, UniProt P00772); experiment: Determination of elastase-inhibitory activity; format: biochemical, swine; conditions: 0.1 μM; read-out: inhibition rate, elastase
T2 construct: purchased Sigma; host or cells: swine pancreas
T2 sequence (P00772 27-266): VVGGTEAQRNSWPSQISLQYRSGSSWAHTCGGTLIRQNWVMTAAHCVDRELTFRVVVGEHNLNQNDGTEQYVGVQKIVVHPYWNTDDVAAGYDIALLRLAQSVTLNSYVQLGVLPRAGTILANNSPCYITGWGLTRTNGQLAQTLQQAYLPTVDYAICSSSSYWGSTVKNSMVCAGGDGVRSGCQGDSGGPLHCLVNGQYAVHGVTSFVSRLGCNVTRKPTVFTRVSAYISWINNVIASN
Procedure: as §1
Determination of elastase-inhibitory activity
Similarly, by following the procedure mentioned above, but employing a 1 mM Tris-HCl buffer (pH 8.5) as a buffer for measurement, a 0.2 μM solution of elastase (derived from swine pancreas, Sigma) in the same buffer as an enzyme solution and a 200 μM solution of 7-(N-succinyl-aranyl-prolyl-aranyl)-4-methylcoumarinamide (Peptide Institute, Inc.) in the same buffer as a substrate solution, each fluorescence (e1, e2 and e3) was determined, respectively.
as §2

cathepsin B = target: T3, cathepsin B (Bos taurus, UniProt P07688); experiment: Determination of cathepsin B-inhibitory activity; format: biochemical, bovine; conditions: 0.1 μM; read-out: inhibition rate, cathepsin B
T3 construct: purchased Sigma; host or cells: bovine spleen
Procedure: as §1
Determination of cathepsin B-inhibitory activity
Similarly, by following the procedure mentioned above, but employing a 100 mM sodium phosphate buffer (pH 6.0; containing 1.33 mM EDTA Na2) as a buffer for measurement, a 0.02 μM solution of cathepsin B (derived from bovine spleen, Sigma) in the same buffer as an enzyme solution and a 200 μM solution of 7-(N-benzyloxycarbonyl-phenylaranyl-arginyl)-4-methylcoumarinamide (Peptide Institute, Inc.) in the same buffer as a substrate solution, each fluorescence (f1, f2 and f3) was determined, respectively.
as §2

chymotrypsin = target: T4, chymotrypsin (Bos taurus, UniProt P00766); experiment: Determination of chymotrypsin-inhibitory activity; format: biochemical, bovine; conditions: 0.1 μM; read-out: inhibition rate, chymotrypsin
T4 construct: purchased Sigma; host or cells: bovine pancreas
Procedure: as §1
Determination of chymotrypsin-inhibitory activity
Similarly, by following the procedure mentioned above, but employing a 50 mM Tris-HCl buffer (pH 8.0) as a buffer for measurement, a 0.2 μM solution of chymotrypsin (derived from bovine pancreas, Sigma) in the same buffer as an enzyme solution and a […] solution of 7-(N-succinyl-leucyl-leucyl-valyl-tyrosyl)-4-methylcoumarinamide (Peptide Institute, Inc.) in the same buffer as a substrate solution, each fluorescence (c1, c2 and c3) was determined, respectively.
as §2

prolyl endopeptidase = target: T5, prolyl endopeptidase (Rattus norvegicus, UniProt O70196); experiment: Prolyl endopeptidase-inhibitory activity; format: biochemical; conditions: for inhibition at 0.1 µM: read-out: inhibition rate, prolyl endopeptidase
T5 construct: prolyl endopeptidase extracted from rat brain; from tissue; host or cells: rat brain
T5 sequence (O70196 whole entry): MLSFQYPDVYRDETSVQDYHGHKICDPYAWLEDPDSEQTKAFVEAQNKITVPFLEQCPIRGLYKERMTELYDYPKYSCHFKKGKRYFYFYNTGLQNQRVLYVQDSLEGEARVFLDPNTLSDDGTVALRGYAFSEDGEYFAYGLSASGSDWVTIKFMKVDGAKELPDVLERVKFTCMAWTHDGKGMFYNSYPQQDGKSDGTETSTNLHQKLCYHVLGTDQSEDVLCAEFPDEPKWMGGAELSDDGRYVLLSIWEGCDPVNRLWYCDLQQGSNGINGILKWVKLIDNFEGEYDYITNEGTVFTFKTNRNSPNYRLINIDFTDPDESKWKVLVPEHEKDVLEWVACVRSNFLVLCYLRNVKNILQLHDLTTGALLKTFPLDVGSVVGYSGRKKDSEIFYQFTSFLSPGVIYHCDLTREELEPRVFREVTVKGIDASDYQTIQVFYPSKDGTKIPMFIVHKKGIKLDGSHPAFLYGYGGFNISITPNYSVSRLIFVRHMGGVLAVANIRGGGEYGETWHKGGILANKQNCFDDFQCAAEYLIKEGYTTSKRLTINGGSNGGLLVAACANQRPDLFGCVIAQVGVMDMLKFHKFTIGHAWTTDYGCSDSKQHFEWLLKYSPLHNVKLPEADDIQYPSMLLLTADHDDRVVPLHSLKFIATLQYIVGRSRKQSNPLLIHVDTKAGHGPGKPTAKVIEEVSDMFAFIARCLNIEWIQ
Procedure: Prolyl endopeptidase-inhibitory activity
A mixture of a 0.1M potassium sodium phosphate buffer (pH 7.0) (2675 μl), a solution of the compounds of the present invention in a 0.1M potassium sodium phosphate buffer (pH 7.0) (100 μl) and a solution of prolyl endopeptidase extracted from rat brain in a 25 mM sodium phosphate buffer (100 μl) [123 unit/1, pH 6.8, containing 1 mM dithiothreitol and 0.5 mM EDTA, prepared by the method described in J. Neurochem., 35, 527 (1980)]was preincubated at 30° C. for 30 minutes. Thereto was added a 0.2 mM solution of 7-(N-succinyl-glycyl-prolyl)-4-methylcoumarinamide (Peptide Institute, INC.) in a 0.1M potassium sodium phosphate buffer (pH 7.0) (125 μl), and the mixture was incubated at 30° C. for 1 hour. The reaction mixture was immersed in ice (0° C.) to terminate the reaction, and the fluorescence (a1) was determined ten minutes later (excitation at 370 nm and emission at 440 nm). Concurrently, there were conducted the experiment wherein, in the above system, the prolyl endopeptidase solution was substituted for a 25 mM sodium phosphate buffer (pH 6.8, containing 1 mM dithiothreitol and 0.5 mM EDTA) and the experiment wherein the solution of the compounds of the present invention was substituted for a 0.1M potassium sodium phosphate buffer (pH 7.0). Each fluorescence (a2 and a3) was determined respectively [See Tanpakushitsu Kakusan Koso, 29, 127 (1984)]. The prolyl endopeptidase-inhibition rate was calculated by the following formula, and IC50, a concentration of a compound producing 50% inhibition, was estimated by semilogarithmic graph paper. [formula] […]

leucine aminopeptidase = experiment: Determination of leucine aminopeptidase-inhibitory activity; format: biochemical, swine; design: unit not given here; conditions: 0.1 μM
Procedure: as §1
Determination of leucine aminopeptidase-inhibitory activity
Similarly, by following the procedure mentioned above, but employing a 50 mM Tris-HCl buffer (pH 8.0) as a buffer for measurement, a […] solution of leucine aminopeptidase (derived from swine kidney, Sigma) in the same buffer as an enzyme solution and a 200 μM solution of 7-leucyl-4-methyl-coumarinamide (Peptide Institute, Inc.) in the same buffer as a substrate solution, each fluorescence (d1, d2 and d3) was determined, respectively.
as §2

[1] = prolyl endopeptidase extracted from rat brain, pH 7.0, 30° C., read-out: IC50

SMILES	inhibition at 0.1 µM (trypsin) [%]	inhibition at 0.1 µM (elastase) [%]	inhibition at 0.1 µM (cathepsin B) [%]	inhibition at 0.1 µM (chymotrypsin) [%]	inhibition at 0.1 µM (prolyl endopeptidase) [%]	IC50 (prolyl endopeptidase; [1]) [nM]	inhibition rate, leucine aminopeptidase (leucine aminopeptidase)	IC50 (prolyl endopeptidase) [nM]
O=C(CSc1ccccc1)[C@@H]1CCCN1C(=O)[C@@H]1CCCN1C(=O)OCc1ccccc1 [Compound 1, (2S)-1-(N-Benzyloxycarbonyl-L-prolyl)-2-[(Phenylthio)acetyl]-pyrrolidine]	0	0	0	20	90	0.3	0	
O=C(C[S+]([O-])c1ccccc1)[C@@H]1CCCN1C(=O)[C@@H]1CCCN1C(=O)OCc1ccccc1 (stereo partly drawn) [Compound 2, (2S)-1-(N-Benzyloxycarbonyl-L-prolyl)-2-[(phenylsulfinyl)-acetyl]pyrrolidine]	0	0	0	0	100	1.2	0	
O=C(CS(=O)(=O)c1ccccc1)[C@@H]1CCCN1C(=O)[C@@H]1CCCN1C(=O)OCc1ccccc1 [Compound 3, (2S)-1-(N-Benzyloxycarbonyl-L-prolyl)-2-[(phenylsulfonyl)-acetyl]pyrrolidine]	0	0	0	0	91	12	0	
O=C(COc1ccccc1)[C@@H]1CCCN1C(=O)[C@@H]1CCCN1C(=O)OCc1ccccc1 [Compound 4, (2S)-1-(N-Benzyloxycarbonyl-L-prolyl)-2-(phenoxyacetyl)-pyrrolidine]	0	0	0	0	98	0.3	0	
O=C(C[S+]([O-])c1ccccc1)[C@@H]1CCCN1C(=O)[C@@H]1CCCN1C(=O)CCCc1ccccc1 (stereo partly drawn) [Compound 5, (2S)-1-[N-(4-Phenylbutyryl)-L-prolyl]-2-[(phenylsulfinyl)-acetyl]pyrrolidine]	0	0	0	0	98	0.3	0	
COc1ccc([S+]([O-])CC(=O)[C@@H]2CCCN2C(=O)[C@@H]2CCCN2C(=O)OCc2ccccc2)cc1 (stereo partly drawn) [Compound 6, (2S)-1-(N-Benzyloxycarbonyl-L-prolyl)-2-[(4-methoxyphenylsulfinyl)acetyl]pyrrolidine]	0	0	20	0	98	0.65	0	
O=C(C[S+]([O-])c1ccc([N+](=O)[O-])cc1)[C@@H]1CCCN1C(=O)[C@@H]1CCCN1C(=O)OCc1ccccc1 (stereo partly drawn) [Compound 7, (2S)-1-(N-Benzyloxycarbonyl-L-prolyl)-2-[(4-nitrophenylsulfinyl)acetyl]pyrrolidine]	0	0	20	0	97	1	0	
CC(C)[S+]([O-])CC(=O)[C@@H]1CCCN1C(=O)[C@@H]1CCCN1C(=O)OCc1ccccc1 (stereo partly drawn) [Compound 8, (2S)-1-(N-Benzyloxycarbonyl-L-prolyl)-2-[(isopropylsulfinyl)-acetyl]pyrrolidine]	0	0	0	0	92	3	0	
O=C(C[S@+]([O-])c1ccccc1)[C@@H]1CCCN1C(=O)[C@@H]1CCCN1C(=O)OCc1ccccc1 [Compound 9, (2S)-1-(N-Benzyloxycarbonyl-L-prolyl)-2-{[(S)-phenylsulfinyl]-acetyl}pyrrolidine]	0	0	0	0	98	0.2	0	
O=C(C[S@@+]([O-])c1ccccc1)[C@@H]1CCCN1C(=O)[C@@H]1CCCN1C(=O)OCc1ccccc1 [Compound 10, (2S)-1-(N-Benzyloxycarbonyl-L-prolyl)-2-{[(R)-phenylsulfinyl]acetyl}pyrrolidine]	0	0	0	0	97	80	0	
COc1ccc([S@@+]([O-])CC(=O)[C@@H]2CCCN2C(=O)[C@@H]2CCCN2C(=O)OCc2ccccc2)cc1 [Compound 11, (2S)-1-(N-Benzyloxycarbonyl-L-prolyl)-2-{[(S)-4-methoxy-phenylsulfinyl]acetyl}pyrrolidine]	0	0	0	0	90	1.5	0	
O=C(COc1ccc2c(c1)OCO2)[C@@H]1CCCN1C(=O)[C@@H]1CCCN1C(=O)NCc1ccccc1 [Compound 33, (2S)-1-[N-(Benzylaminocarbonyl)-L-prolyl]-2-{[(3,4-methylenedioxy)phenoxy]acetyl} pyrrolidine]	0	0	0	0	96			1
